Data reported in article PMC4076210, “Discovery of Novel AKT Inhibitors with Enhanced Anti-Tumor Effects in Combination with the MEK Inhibitor” (PLoS ONE, 2014).
Where two headings read alike, the source gives them in different places.

Columns and labels:
[1] = target: T1, MRCKβ(h) (Homo sapiens, UniProt Q9Y5S2); experiment: Kinase panel; format: biochemical
T1 construct: purchased Millipore KinaseProfiler

[2] = target: T2, Txk(h) (Homo sapiens, UniProt P42681); experiment: Kinase panel; format: biochemical
T2 construct: purchased Millipore KinaseProfiler
T2 sequence (P42681 1-527): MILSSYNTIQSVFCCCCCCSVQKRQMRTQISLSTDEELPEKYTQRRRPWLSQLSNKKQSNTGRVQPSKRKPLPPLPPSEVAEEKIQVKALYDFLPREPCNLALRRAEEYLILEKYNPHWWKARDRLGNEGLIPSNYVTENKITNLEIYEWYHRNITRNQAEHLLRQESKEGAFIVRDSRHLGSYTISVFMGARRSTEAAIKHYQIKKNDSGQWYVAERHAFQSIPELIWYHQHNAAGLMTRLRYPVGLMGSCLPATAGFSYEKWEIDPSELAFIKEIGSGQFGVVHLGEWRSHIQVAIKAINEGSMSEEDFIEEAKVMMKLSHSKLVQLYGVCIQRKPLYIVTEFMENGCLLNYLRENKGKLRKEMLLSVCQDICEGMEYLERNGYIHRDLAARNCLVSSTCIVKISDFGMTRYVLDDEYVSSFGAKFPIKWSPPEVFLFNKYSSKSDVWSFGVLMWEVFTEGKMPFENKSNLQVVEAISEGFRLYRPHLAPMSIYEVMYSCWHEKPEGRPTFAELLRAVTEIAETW

[3] = target: T3, SGK(h) (Homo sapiens, UniProt O00141); experiment: Kinase panel; format: biochemical
T3 construct: purchased Millipore KinaseProfiler
T3 sequence (O00141 1-431): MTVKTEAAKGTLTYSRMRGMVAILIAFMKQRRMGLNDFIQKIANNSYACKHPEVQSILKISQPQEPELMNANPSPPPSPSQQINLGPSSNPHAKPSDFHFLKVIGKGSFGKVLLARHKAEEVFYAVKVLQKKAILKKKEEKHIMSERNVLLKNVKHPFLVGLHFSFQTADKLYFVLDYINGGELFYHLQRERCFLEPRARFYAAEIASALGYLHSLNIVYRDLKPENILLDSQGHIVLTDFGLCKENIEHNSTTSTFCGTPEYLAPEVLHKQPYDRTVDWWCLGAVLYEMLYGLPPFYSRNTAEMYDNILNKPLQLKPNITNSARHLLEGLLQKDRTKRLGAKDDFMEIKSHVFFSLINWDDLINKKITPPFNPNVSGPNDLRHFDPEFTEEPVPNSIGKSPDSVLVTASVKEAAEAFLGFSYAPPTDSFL

[4] = target: T4, MSK1(h) (Homo sapiens, UniProt O75582); experiment: Kinase panel; format: biochemical
T4 construct: purchased Millipore KinaseProfiler

[5] = target: T5, PhKγ2(h) (Homo sapiens, UniProt P15735); experiment: Kinase panel; format: biochemical
T5 construct: purchased Millipore KinaseProfiler
T5 sequence (P15735 1-406): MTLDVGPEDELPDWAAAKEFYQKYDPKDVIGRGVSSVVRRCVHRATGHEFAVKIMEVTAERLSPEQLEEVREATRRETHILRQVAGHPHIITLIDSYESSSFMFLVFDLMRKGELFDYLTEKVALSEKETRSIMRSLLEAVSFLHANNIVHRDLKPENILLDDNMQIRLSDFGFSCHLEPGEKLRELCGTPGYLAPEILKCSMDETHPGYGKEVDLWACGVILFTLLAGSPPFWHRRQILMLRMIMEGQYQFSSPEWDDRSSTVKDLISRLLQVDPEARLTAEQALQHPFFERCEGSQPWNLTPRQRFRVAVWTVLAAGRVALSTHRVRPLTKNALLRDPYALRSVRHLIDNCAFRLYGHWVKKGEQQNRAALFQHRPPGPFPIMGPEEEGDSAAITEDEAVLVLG

[6] = target: PKCβ2 (Homo sapiens, UniProt P05771); experiment: Kinase IC50 assay; format: biochemical
[7] = target: PKCβ1 (Homo sapiens, UniProt P05771); experiment: Kinase IC50 assay; format: biochemical
[8] = target: T6, PKCζ(h) (Homo sapiens, UniProt Q05513); experiment: Kinase panel; format: biochemical
T6 construct: purchased Millipore KinaseProfiler
T6 sequence (Q05513 1-592): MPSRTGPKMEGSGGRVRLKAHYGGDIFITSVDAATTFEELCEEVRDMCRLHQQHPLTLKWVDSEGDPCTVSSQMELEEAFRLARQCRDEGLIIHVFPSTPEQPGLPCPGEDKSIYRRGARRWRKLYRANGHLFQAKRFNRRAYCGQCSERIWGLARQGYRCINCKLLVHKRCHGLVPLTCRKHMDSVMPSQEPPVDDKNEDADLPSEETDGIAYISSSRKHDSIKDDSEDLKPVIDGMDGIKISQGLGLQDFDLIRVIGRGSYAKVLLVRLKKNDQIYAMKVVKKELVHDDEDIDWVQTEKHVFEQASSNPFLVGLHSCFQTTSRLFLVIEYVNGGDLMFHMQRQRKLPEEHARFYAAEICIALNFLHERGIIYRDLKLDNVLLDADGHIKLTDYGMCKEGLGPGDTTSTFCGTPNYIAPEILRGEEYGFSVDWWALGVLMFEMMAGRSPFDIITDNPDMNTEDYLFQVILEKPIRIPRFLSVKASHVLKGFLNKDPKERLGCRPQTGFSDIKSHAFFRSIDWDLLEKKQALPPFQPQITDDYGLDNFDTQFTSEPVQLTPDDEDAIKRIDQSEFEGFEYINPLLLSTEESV

[9] = target: T7, WNK2(h) (Homo sapiens, UniProt Q9Y3S1); experiment: Kinase panel; format: biochemical
T7 construct: purchased Millipore KinaseProfiler
T7 sequence (Q9Y3S1 whole entry): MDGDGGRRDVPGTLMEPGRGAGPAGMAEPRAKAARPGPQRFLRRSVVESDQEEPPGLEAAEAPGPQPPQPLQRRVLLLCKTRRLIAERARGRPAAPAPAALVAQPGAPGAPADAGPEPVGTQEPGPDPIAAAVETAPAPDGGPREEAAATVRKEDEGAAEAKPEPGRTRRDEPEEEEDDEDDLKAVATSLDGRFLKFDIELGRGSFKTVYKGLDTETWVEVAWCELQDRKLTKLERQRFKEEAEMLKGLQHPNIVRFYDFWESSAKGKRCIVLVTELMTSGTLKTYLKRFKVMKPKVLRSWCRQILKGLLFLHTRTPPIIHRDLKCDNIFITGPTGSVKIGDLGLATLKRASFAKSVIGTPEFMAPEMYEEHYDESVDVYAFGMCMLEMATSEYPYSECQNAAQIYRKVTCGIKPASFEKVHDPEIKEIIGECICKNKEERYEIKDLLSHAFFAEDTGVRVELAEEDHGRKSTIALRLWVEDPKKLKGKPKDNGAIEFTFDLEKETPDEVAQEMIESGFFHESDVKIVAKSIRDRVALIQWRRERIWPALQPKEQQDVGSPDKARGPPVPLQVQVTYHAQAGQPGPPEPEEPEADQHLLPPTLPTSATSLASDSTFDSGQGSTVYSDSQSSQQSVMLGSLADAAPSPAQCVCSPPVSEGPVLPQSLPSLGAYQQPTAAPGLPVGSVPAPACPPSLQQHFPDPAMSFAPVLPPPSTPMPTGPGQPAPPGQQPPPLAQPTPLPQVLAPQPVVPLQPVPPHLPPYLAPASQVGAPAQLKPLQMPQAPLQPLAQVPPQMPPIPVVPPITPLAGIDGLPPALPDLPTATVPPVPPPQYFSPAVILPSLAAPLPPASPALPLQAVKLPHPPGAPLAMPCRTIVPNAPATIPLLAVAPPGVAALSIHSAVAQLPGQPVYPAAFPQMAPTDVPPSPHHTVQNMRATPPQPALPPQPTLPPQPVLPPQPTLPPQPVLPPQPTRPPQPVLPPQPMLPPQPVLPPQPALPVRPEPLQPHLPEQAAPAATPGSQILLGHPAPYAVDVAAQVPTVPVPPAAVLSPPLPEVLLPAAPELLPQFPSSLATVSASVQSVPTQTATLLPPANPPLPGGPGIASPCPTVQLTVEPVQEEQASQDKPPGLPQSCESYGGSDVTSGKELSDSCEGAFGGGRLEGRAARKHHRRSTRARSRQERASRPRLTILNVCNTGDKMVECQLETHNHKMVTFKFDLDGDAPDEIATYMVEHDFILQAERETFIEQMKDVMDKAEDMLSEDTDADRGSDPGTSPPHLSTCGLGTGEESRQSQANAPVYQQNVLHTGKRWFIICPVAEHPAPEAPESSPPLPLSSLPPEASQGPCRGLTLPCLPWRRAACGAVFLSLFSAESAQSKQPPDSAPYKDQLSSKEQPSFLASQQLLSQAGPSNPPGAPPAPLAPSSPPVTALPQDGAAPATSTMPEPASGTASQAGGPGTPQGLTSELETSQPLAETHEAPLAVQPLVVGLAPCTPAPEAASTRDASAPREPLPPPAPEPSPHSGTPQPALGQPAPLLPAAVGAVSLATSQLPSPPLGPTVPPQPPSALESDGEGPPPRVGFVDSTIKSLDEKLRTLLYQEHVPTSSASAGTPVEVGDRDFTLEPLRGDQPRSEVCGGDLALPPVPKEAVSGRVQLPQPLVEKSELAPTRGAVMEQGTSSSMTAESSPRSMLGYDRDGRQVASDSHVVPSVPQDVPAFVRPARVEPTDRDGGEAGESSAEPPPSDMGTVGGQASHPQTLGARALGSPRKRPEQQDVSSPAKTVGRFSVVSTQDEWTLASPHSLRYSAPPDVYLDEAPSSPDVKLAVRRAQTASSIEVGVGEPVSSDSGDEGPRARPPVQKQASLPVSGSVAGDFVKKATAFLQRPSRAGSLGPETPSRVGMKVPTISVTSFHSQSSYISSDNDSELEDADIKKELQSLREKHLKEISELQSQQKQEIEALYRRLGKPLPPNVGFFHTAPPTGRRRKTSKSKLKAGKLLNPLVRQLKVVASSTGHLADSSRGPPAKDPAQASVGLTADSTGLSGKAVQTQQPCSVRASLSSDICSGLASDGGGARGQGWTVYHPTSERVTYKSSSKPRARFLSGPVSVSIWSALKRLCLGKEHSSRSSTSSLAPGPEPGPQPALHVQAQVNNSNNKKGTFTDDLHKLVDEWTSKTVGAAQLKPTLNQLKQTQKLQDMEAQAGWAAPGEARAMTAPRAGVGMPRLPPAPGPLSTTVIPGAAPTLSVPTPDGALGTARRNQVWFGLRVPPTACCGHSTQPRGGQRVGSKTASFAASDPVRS

[10] = target: PKCη (Homo sapiens, UniProt P24723); experiment: Kinase IC50 assay; format: biochemical
[11] = target: T8, FGFR2(N549H)(h) (Homo sapiens, UniProt P21802, N549H); experiment: Kinase panel; format: biochemical
T8 construct: purchased Millipore KinaseProfiler
T8 sequence (P21802 22-821 N549H): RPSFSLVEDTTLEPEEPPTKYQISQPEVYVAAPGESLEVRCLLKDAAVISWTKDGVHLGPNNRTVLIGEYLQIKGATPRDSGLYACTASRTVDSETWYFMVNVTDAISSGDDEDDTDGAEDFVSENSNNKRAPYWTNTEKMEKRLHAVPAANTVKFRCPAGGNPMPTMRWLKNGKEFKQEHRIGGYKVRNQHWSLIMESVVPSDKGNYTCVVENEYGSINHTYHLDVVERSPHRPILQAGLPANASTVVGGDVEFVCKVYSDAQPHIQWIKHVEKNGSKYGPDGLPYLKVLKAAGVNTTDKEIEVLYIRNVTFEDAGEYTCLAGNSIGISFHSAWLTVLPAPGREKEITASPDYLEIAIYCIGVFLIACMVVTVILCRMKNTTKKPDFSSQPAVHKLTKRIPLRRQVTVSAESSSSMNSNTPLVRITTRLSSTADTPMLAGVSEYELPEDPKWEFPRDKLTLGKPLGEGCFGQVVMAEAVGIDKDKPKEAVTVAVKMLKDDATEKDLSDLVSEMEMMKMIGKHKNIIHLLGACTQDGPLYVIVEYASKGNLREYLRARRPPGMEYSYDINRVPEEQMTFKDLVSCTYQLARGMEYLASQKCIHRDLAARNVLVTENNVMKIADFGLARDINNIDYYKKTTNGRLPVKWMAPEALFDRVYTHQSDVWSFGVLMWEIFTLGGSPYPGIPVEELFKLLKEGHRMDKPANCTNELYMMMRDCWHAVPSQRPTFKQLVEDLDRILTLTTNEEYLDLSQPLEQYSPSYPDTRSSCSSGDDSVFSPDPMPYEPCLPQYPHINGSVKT

[12] = target: T9, CLK2(h) (Homo sapiens, UniProt P49760); experiment: Kinase panel; format: biochemical
T9 construct: purchased Millipore KinaseProfiler

[13] = Compound concentration in blood and tumor (HPLC/MS/MS); format: in vivo, mouse
Procedure: Concentration of the test compounds in the tissue and blood was analyzed using protein precipitation with acetonitrile, followed by HPLC/MS/MS analysis using positive ion atmospheric pressure chemical ionization or Turbo ionspray ionization (API 4000 or API 5000, Applied Biosystems).
The pharmacodynamic studies were carried out in SCID mice bearing BT474 tumor xenografts. […] Concentration of the test compounds was analysed by HPLC/MS/MS analysis.

[14] = target: T10, PKBβ(h) (Homo sapiens, UniProt P31751); experiment: Kinase panel; format: biochemical
T10 construct: purchased Millipore KinaseProfiler

[15] = target: T11, PKBγ(h) (Homo sapiens, UniProt Q9Y243); experiment: Kinase panel; format: biochemical
T11 construct: purchased Millipore KinaseProfiler

T1 sequence (Q9Y5S2 whole entry): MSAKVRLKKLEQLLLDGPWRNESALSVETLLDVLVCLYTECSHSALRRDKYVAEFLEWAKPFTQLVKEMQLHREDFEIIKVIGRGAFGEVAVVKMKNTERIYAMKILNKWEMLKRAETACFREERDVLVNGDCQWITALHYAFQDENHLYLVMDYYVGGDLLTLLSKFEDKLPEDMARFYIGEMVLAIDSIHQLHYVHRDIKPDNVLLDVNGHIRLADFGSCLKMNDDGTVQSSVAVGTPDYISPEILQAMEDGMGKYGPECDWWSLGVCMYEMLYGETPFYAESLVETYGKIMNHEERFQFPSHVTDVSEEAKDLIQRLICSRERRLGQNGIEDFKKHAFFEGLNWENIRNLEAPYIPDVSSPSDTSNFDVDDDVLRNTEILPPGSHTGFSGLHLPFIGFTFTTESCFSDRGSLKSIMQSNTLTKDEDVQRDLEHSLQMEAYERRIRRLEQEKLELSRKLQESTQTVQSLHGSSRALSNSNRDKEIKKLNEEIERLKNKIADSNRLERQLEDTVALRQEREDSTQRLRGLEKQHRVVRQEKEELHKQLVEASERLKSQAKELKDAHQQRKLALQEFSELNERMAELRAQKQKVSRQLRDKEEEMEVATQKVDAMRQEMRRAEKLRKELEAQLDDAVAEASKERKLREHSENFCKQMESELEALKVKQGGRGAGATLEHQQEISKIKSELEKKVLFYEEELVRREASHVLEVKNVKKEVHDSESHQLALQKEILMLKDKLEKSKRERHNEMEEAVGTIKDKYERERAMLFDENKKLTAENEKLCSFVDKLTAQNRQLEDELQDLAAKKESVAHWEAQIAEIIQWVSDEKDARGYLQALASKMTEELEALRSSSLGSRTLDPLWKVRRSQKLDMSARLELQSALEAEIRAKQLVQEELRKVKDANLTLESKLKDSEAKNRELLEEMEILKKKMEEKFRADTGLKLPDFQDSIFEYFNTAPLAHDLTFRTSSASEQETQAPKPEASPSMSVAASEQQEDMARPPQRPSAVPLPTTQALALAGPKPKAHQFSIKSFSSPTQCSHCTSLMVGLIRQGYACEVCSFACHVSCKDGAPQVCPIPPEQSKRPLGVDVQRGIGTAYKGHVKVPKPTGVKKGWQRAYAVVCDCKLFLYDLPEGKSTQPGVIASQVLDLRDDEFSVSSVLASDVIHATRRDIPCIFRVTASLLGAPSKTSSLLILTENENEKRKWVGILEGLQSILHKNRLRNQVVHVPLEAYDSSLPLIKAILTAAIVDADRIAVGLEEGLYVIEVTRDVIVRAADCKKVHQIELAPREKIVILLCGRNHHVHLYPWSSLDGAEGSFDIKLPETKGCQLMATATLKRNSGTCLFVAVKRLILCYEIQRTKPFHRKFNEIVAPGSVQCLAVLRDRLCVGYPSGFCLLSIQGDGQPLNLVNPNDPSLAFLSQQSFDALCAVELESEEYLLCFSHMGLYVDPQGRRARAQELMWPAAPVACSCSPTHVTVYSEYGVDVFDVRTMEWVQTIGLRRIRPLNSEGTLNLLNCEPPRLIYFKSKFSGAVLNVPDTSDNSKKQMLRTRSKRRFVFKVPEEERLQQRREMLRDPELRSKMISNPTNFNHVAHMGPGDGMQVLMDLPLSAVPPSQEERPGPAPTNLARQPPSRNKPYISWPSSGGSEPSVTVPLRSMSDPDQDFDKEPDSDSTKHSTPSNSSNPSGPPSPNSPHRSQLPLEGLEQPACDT

SMILES: Cn1ncc(Cl)c1-c1cc(C(=O)N[C@H](CN)Cc2cccc(F)c2)sc1Cl [GSK2110183]
- inhibition at 0.5 µM [1]: -4%
- inhibition at 10 µM [1]: 11%
- inhibition at 0.5 µM [2]: -9%
- inhibition at 10 µM [2]: 15%
- inhibition at 0.5 µM [3]: 36%
- inhibition at 10 µM [3]: 87%
- inhibition at 0.5 µM [4]: 85%
- inhibition at 10 µM [4]: 98%
- inhibition at 0.5 µM [5]: 31%
- inhibition at 10 µM [5]: 89%
- IC50 [6]: > 1000 nM
- IC50 [7]: 430 nM
- inhibition at 0.5 µM [8]: -4%
- inhibition at 10 µM [8]: 37%
- inhibition at 0.5 µM [9]: 1%
- inhibition at 10 µM [9]: 26%
- IC50 [10]: 210 nM
- inhibition at 0.5 µM [11]: -1%
- inhibition at 10 µM [11]: -1%

SMILES: Cn1ncc(Cl)c1-c1cc(C(=O)N[C@H](CN)Cc2ccc(F)c(F)c2)oc1Cl [GSK2141795]
- inhibition at 0.5 µM ([12]; 0.5 µM): 58%
- inhibition at 10 µM ([12]; 10 µM): 94%
- inhibition at 0.5 µM ([1]; 0.5 µM, read-out: % Inhibition): -8%
- inhibition at 10 µM ([1]; 10 µM, read-out: % Inhibition): 3%
- inhibition at 0.5 µM ([2]; 0.5 µM, read-out: % Inhibition): 11%
- inhibition at 10 µM ([2]; 10 µM, read-out: % Inhibition): 30%
- inhibition at 0.5 µM ([3]; 0.5 µM, read-out: % Inhibition): 47%
- inhibition at 10 µM ([3]; 10 µM, read-out: % Inhibition): 90%
- inhibition at 0.5 µM ([4]; 0.5 µM, read-out: % Inhibition): 90%
- inhibition at 10 µM ([4]; 10 µM, read-out: % Inhibition): 95%
- blood concentrations ([13]; 30 mg/kg QDx7, time course, maintained for 8 h): 2000 to 3000 nM
- concentration at 2 h ([13]; SCID, mouse, whole blood, 30 mg/kg QDx7 oral, 2 h post last dose): ~3000 nM
- inhibition at 0.5 µM ([5]; 0.5 µM, read-out: % Inhibition): 23%
- inhibition at 10 µM ([5]; 10 µM, read-out: % Inhibition): 88%
- inhibition at 0.5 µM ([14]; 0.5 µM): 95%
- inhibition at 10 µM ([14]; 10 µM): 99%
- inhibition at 0.5 µM ([8]; 0.5 µM, read-out: % Inhibition): 5%
- inhibition at 10 µM ([8]; 10 µM, read-out: % Inhibition): 74%
- inhibition at 0.5 µM ([9]; 0.5 µM, read-out: % Inhibition): -12%
- inhibition at 10 µM ([9]; 10 µM, read-out: % Inhibition): 3%
- inhibition at 0.5 µM ([15]; 0.5 µM): 98%
- inhibition at 10 µM ([15]; 10 µM): 98%
- IC50 [10]: 49 nM
- inhibition at 0.5 µM ([11]; 0.5 µM, read-out: % Inhibition): -2%
- inhibition at 10 µM ([11]; 10 µM, read-out: % Inhibition): -5%
